Reference: US20210115018A1, “PIPERIDINE COMPOUNDS AS COVALENT MENIN INHIBITORS” (THE REGENTS OF THE UNIVERSITY OF MICHIGAN, priority 2018, published 2021)

How the values were obtained:
[1] = system: MOLM13; experiment: 7-day proliferation assay (WST-8), cell growth inhibition; assay type: cell-based; details: Homo sapiens, MOLM-13, 168 h, MOLM13 cells, 7 days
Outline: (§1)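 Cells seeded at 2,000-3,000/well were exposed to serially diluted compound for 7 days at 37° C., 5% CO2. Viability was read by WST-8 absorbance at 450 nm after 1-2 h color development; readings normalized to DMSO-treated cells, IC50 by four-parameter nonlinear regression.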

[2] = system: MV4-11; experiment: as above; assay type: cell-based; details: Homo sapiens, MV4-11, 168 h, MV4-11 cells, 7 days
Outline: as §1

[3] = molecular target: T1, menin protein (Homo sapiens, UniProt O00255); experiment: Fluorescence polarization (FP) competitive binding assay, menin binding affinity; details: FP competition with FAM-MM2 probe 2 nM, menin 4 nM, 30 minutes room temperature
T1 sequence (O00255 1-610): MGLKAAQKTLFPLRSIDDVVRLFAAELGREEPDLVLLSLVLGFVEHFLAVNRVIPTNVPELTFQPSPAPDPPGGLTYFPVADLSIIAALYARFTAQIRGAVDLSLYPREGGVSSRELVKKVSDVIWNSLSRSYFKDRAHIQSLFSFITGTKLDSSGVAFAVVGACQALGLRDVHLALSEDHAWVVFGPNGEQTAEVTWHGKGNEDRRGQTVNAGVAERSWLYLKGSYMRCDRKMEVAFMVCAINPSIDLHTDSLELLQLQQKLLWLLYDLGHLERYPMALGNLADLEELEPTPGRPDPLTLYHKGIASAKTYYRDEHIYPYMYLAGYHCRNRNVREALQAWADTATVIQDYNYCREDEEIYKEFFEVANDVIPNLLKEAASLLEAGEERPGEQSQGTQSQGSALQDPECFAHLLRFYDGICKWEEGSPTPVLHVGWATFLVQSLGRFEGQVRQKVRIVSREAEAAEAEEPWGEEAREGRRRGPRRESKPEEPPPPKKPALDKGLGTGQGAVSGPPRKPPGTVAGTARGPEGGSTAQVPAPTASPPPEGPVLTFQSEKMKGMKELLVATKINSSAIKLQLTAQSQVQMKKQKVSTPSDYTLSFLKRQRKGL
Outline: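 Competitive FP with FAM-labeled MLL1 peptide probe FAM-MM2 (2 nM) and menin (4 nM) in PBS, 0.02% bovine γ-globulin, 4% DMSO, 0.01% Triton X-100. After 30 min at room temperature, mP read at 485/530 nm; IC50 from nonlinear regression against probe-only and complex-only controls.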

With C=CC(=O)N1CCOC[C@@H](S(=O)(=O)c2ccc(N3CC(C)(CN4CCC([C@@](CN5CCC5)(c5cccc(F)c5)[C@H]5CCC[C@@H]5NC(=O)OC)CC4)C3)c(F)c2)C1 [compound 217] the IC50 [1] was under 100 nM, the IC50 [2] was under 10 nM and the IC50 [3] was 2 nM.
Compound COC(=O)N[C@H]1CCC[C@@H]1[C@](CN1CCC1)(c1cccc(F)c1)C1CCN(CC2CN(c3ccc(S(=O)(=O)C4CN(C(=O)/C=C/CN(C)C)C4)cc3)C2)CC1 [Cpd. No. 5, methyl ((1S,2R)-2-((S)-2-(azetidin-1-yl)-1-(1-((1-(4-((1-((E)-4-(dimethylamino)but-2-enoyl)azetidin-3-yl)sulfonyl)phenyl)azetidin-3-yl)methyl)piperidin-4-yl)-1-(3-fluorophenyl)ethyl)cyclopentyl)carbamate] has an IC50 [1] of under 50 nM, an IC50 [2] of under 10 nM and an IC50 [3] of 3 nM.
Compound C=CC(=O)N1CCCC[C@@H](S(=O)(=O)c2ccc(N3CC(CN4CCC([C@@](CN5CCC5)(c5cccc(F)c5)[C@H]5CCC[C@@H]5NC(=O)OC)CC4)(OC)C3)cc2)C1 [compound 226] has an IC50 [1] of under 50 nM, an IC50 [2] of under 50 nM and an IC50 [3] of 3 nM.
With COC(=O)N[C@H]1CCC[C@@H]1[C@](CN1CCC1)(c1cccc(F)c1)C1CCN(CC2(F)CN(c3ccc(S(=O)(=O)C4CN(C(=O)/C=C/CN(C)C)C4)cc3)C2)CC1 [Cpd. No. 7, methyl ((1S,2R)-2-((S)-2-(azetidin-1-yl)-1-(1-((1-(4-((1-((E)-4-(dimethylamino)but-2-enoyl)azetidin-3-yl)sulfonyl)phenyl)-3-fluoroazetidin-3-yl)methyl)piperidin-4-yl)-1-(3-fluorophenyl)ethyl)cyclopentyl)carbamate] the IC50 [1] was under 100 nM, the IC50 [2] was under 10 nM and the IC50 [3] was 2 nM.
In the case of C=CC(=O)N1CCCC[C@@H](S(=O)(=O)c2ccc(N3CC(CN4CCC([C@@](CN5CCC5)(c5cccc(F)c5)[C@H]5CCC[C@@H]5NC(=O)OC)CC4)(OC)C3)c(F)c2)C1 [compound 227], the IC50 [1] is reported as under 50 nM, the IC50 [2] is reported as under 50 nM and the IC50 [3] is reported as 7 nM.
Work on C=CC(=O)N1CCOC[C@@H](S(=O)(=O)c2ccc(N3CC(CN4CCC([C@@](CN5CCC5)(c5cccc(F)c5)[C@H]5CCC[C@@H]5NC(=O)OC)CC4)C3)c(F)c2)C1 [compound 218] yielded an IC50 [1] of under 1000 nM, an IC50 [2] of under 50 nM and an IC50 [3] of 2 nM.
In the case of C=CC(=O)N1CCOC[C@@H](S(=O)(=O)c2ccc(N3CC(CN4CCC([C@@](CN5CCC5)(c5cccc(F)c5)[C@H]5CCC[C@@H]5NC(=O)OC)CC4)(OC)C3)c(F)c2)C1 [compound 230], the IC50 [1] is reported as under 50 nM, the IC50 [2] is reported as under 50 nM and the IC50 [3] is reported as 5 nM.
In the case of C=CC(=O)N1CCC[C@@H](S(=O)(=O)c2ccc(N3CC(CN4CCC([C@@](CN5CCC5)(c5cccc(F)c5)[C@H]5CCC[C@@H]5NC(=O)OC)CC4)C3)c(F)c2)C1 [compound 219], the IC50 [1] is reported as under 10 nM, the IC50 [2] is reported as under 10 nM and the IC50 [3] is reported as 2 nM.
With C/C=C/S(=O)(=O)N1CCCC[C@@H](S(=O)(=O)c2ccc(N3CC(F)(CN4CCC([C@@](CN5CCC5)(c5cccc(F)c5)[C@H]5CCC[C@@H]5NC(=O)OC)CC4)C3)cc2)C1 [compound 233] the IC50 [1] was under 500 nM, the IC50 [2] was under 100 nM and the IC50 [3] was 3 nM.
Compound C=CC(=O)N1CCCC[C@@H](S(=O)(=O)c2ccc(N3CC(CN4CCC([C@@](CN5CCC5)(c5cccc(F)c5)[C@H]5CCC[C@@H]5NC(=O)OC)CC4)C3)cc2)C1 [compound 220] has an IC50 [1] of under 50 nM, an IC50 [2] of under 10 nM and an IC50 [3] of 5 nM.
For C=C(CN1CCCC1)C(=O)N1CC(S(=O)(=O)c2ccc(N3CC(CN4CCC([C@@](CN5CCC5)(c5cccc(F)c5)[C@H]5CCC[C@@H]5NC(=O)OC)CC4)C3)cc2)C1 [Cpd. No. 19, methyl ((1S,2R)-2-((S)-2-(azetidin-1-yl)-1-(3-fluorophenyl)-1-(1-((1-(4-((1-(2-(pyrrolidin-1-ylmethyl)acryloyl)azetidin-3-yl)sulfonyl)phenyl)azetidin-3-yl)methyl)piperidin-4-yl)ethyl)cyclopentyl)carbamate], the IC50 [1] was under 100 nM, the IC50 [2] was under 10 nM and the IC50 [3] was 1 nM.
C=C(CN1CCCCC1)C(=O)N1CC(S(=O)(=O)c2ccc(N3CC(CN4CCC([C@@](CN5CCC5)(c5cccc(F)c5)[C@H]5CCC[C@@H]5NC(=O)OC)CC4)C3)cc2)C1 [Cpd. No. 17, methyl ((1S,2R)-2-((S)-2-(azetidin-1-yl)-1-(3-fluorophenyl)-1-(1-((1-(4-((1-(2-(piperidin-1-ylmethyl)acryloyl)azetidin-3-yl)sulfonyl)phenyl)azetidin-3-yl)methyl)piperidin-4-yl)ethyl)cyclopentyl)carbamate] gave an IC50 [1] of under 100 nM, an IC50 [2] of under 10 nM and an IC50 [3] of 2 nM.
C=C(CN1CCOCC1)C(=O)N1CC(S(=O)(=O)c2ccc(N3CC(F)(CN4CCC([C@@](CN5CCC5)(c5cccc(F)c5)[C@H]5CCC[C@@H]5NC(=O)OC)CC4)C3)cc2)C1 [Cpd. No. 12, methyl ((1S,2R)-2-((S)-2-(azetidin-1-yl)-1-(1-((3-fluoro-1-(4-((1-(2-(morpholinomethyl)acryloyl)azetidin-3-yl)sulfonyl)phenyl)azetidin-3-yl)methyl)piperidin-4-yl)-1-(3-fluorophenyl)ethyl)cyclopentyl)carbamate] showed an IC50 [1] of under 100 nM, an IC50 [2] of under 10 nM and an IC50 [3] of 2 nM.
